Laboratory results: patent publication EP4800013A1, “PARG INHIBITOR” (Shanghai Qilu Pharmaceutical Research and Development …, priority 2023, dated 2025)

Columns and labels:
KURAMOCHI cells = assay: Inhibition of proliferation of KURAMOCHI cells (CellTiter-Glo, intracellular ATP); format: cell-based; settings: 168 h, incubated for 7 days, read-out: IC50 against KURAMOCHI cells
How it was run: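 KURAMOCHI cells seeded at 4000/well, incubated overnight, then treated with 9-point 1:4 compound series from 10 µM (0.5% DMSO) for 7 days at 37°C, 5% CO2. Viability read by CellTiter-Glo luminescence; inhibition normalised to medium-only (100%) and DMSO (0%) controls, IC50 from variable-slope four-parameter fit.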

PARG = molecular target: T1, PARG (Homo sapiens, UniProt Q86W56); assay: Enzymatic inhibitory activity against PARG, HTRF assay; format: biochemical; settings: HTRF; PARylated PARP1 protein as substrate; 60 minutes at room temperature; read-out: IC50 against PARG enzyme
T1 construct: made in house
How it was run: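 Purified PARG pre-incubated with compounds (top 10 µM, 3- to 5-fold dilutions, duplicates) 15 min at room temperature, then PARylated PARP1 substrate added for 60 min in Tris pH 7.4 buffer with DTT, EDTA/EGTA, KCl. HTRF (His-Tb/SA-XL665) read-out; IC50 by four-parameter logistic fit, normalised to DMSO and control-inhibitor wells.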

T1 sequence (Q86W56 whole entry): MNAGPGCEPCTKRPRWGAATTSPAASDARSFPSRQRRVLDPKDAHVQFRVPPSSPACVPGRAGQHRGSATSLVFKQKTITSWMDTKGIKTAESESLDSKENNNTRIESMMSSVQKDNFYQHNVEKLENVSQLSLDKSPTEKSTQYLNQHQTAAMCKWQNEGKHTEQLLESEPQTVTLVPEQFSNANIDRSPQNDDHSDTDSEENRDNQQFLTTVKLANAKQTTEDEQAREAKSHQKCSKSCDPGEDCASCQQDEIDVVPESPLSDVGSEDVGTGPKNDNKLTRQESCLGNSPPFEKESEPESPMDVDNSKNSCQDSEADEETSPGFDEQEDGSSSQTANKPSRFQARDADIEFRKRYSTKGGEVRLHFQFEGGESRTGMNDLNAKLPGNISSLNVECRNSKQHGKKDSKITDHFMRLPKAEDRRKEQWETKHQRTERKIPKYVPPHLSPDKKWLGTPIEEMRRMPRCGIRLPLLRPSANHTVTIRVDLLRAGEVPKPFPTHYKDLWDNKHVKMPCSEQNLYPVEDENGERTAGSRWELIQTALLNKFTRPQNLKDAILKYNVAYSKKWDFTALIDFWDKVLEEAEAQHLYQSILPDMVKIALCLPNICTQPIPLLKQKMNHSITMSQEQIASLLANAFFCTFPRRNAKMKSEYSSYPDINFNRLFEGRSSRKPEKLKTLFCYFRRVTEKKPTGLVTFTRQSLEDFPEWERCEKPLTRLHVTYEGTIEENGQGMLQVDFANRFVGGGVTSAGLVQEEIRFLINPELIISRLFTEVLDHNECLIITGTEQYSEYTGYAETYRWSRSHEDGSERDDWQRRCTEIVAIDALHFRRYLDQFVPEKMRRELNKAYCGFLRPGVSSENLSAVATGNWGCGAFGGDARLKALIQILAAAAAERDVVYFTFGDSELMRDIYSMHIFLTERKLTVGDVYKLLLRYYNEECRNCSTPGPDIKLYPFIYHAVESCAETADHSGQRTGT

SMILES	IC50 (KURAMOCHI cells)	IC50 (PARG)
CCc1nc2n(-c3nnc(C(F)F)s3)c3cc(S(=O)(=O)NC4(C)CC4)cc(N4C[C@H](C)N[C@@H](C)C4)c3n2n1 [Compound 065R]	2 nM	0.4 nM
C[C@H]1CN(c2cc(S(=O)(=O)NC3(C)CC3)cc3c2n2nc(C(F)F)nc2n3-c2nnc(C(F)F)s2)C[C@H](C)N1 [Compound 065S]	2 nM	1.4 nM
C[C@H]1CN(c2cc(S(=O)(=O)NC3(C)CC3)cc3c2n2nc(C(F)(F)F)nc2n3-c2nnc(C(F)F)s2)C[C@H](C)N1 [Compound 065W]	4 nM	0.8 nM
